Data published in US20130039887A1, “Methods of Identifying and Using Anti-Viral Compounds” (KINETA, INC., priority 2010, published 2013).

How the values were obtained:
ISG54 promoter = experiment: ISG54-luciferase reporter assay in Huh7-ISG54-Luc cells; assay type: cell-based, human; settings: dose response (5-50 μM), 24 h
actin promoter = experiment: Actin promoter control cell line counter screen (β-actin-LUC); assay type: cell-based, human
Huh7, MRC5 and 293 cells = experiment: MTS cytotoxicity assay in multiple cell types (Huh7, MRC5, 293); assay type: cell-based, human
Procedure: All lead molecules chosen for further development mediate IRF-3 nuclear translocation and have antiviral activity against HCV. All induce dose-dependent activation of ISG expression in the absence of nonspecific promoter (β-actin) induction. To analyze in vitro cytotoxicity of lead agonist molecules, an MTS assay was conducted using multiple cell types (Huh7, human liver; MRC5, lung fibroblast; and 293, […]).

[1] = test system: Influenza A virus WSN strain (A/WSN/33); experiment: Influenza A virus nucleoprotein ELISA / Western blot assay; assay type: cell-based; settings: ELISA and Western blot
HCV2a virus = experiment: HCV immunofluorescence antiviral / focus-forming assay in Huh7 cells; assay type: cell-based, Hepatitis C virus; settings: Huh7 cells pre-treated 24 h (compounds 10 μM), HCV2a MOI 0.1-0.5
Procedure: HCV immunofluorescence antiviral assay: Huh7 cells are seeded on a 96-well plate at a density of 5×10^3 cells per well and grown for 24 hours. Compounds that have been diluted to 10 μM in media and contain a final concentration of 0.5% DMSO are added to each well and grown another 24 hours. The compound media solution is removed from the plate and stored in a clean tissue culture dish. Cell monolayers are washed with PBS and HCV2a virus is added at the stated MOI. Virus is incubated for 2-4 hours and then removed, the monolayers are washed with PBS and the compound solutions are replaced into each well.
The cells are grown overnight and then cells are fixed and stained for HCV proteins. All buffers and reagents used are from the Cellomics staining kits described above. HCV specific antibodies from either commercial sources or primary patient serum can be used to detect HCV infected cells in culture. […] The number of infected cells is counted and representative images are saved. […]
To measure levels of HCV infection with or without drug treatment the cells were stained for HCV specific staining using serum and a FITC conjugated fluorescent secondary antibody. […] Using an inverted fluorescent microscope the number of infected cells is quantitated (shown—FIG. 9 bottom panel). […]

Molecule | induction of the ISG54-luciferase reporter (ISG54 promoter) | nonspecific promoter induction (β-actin-LUC) (actin promoter) | cytotoxicity (MTS assay) (Huh7, MRC5 and 293 cells) | anti-influenza activity (viral nucleoprotein levels) [1] | HCV infection (infected cells stained for HCV proteins, IF assay) (HCV2a virus)
NS(=O)(=O)c1ccc(-c2ccc(/C=C3/SC(=S)N(Cc4ccco4)C3=O)o2)cc1 [KIN300] | dose-dependent induction | absence of nonspecific promoter induction | absence of cytotoxicity | efficient, dose-dependent anti-influenza activity | 
N#Cc1c(-c2ccccc2)cc(-c2ccccc2)nc1SCC(=O)N1CCOCC1 [KIN400] |  |  |  | efficient, dose-dependent anti-influenza activity | 
COc1ccc(NC(=O)Cn2c(=O)n(Cc3ccco3)c(=O)c3oc4ccccc4c32)c(OC)c1 [KIN500] |  |  |  | efficient, dose-dependent anti-influenza activity | 
Interferon |  |  |  |  | completely blocks HCV infection
